Experimental data reported in ChEMBL document CHEMBL3612063, “Multistage virtual screening and identification of novel HIV-1 protease inhibitors by integrating SVM, shape, pharmacophore and docking methods” (Eur J Med Chem, 2015).
Active and inactive are the calls of the source. The calls are words filed in the database; no cut-off is given here. Square brackets hold non-standard residues; d marks the D form. Peptide text beside a SMILES is read from it. * marks the point of attachment. Hyp = O=C(O)[C@@H]1C[C@@H](O)CN1; ONp = O=[N+]([O-])c1ccc(O*)cc1; Cbz = O=C(OCc1ccccc1)*; Boc = CC(C)(C)OC(=O)*; OBn = c1ccc(CO*)cc1

Legend:
[1] = molecular target: Protease (Human immunodeficiency virus 1) (UniProt Q9YQ12); assay: Inhibition of recombinant HIV1 protease at 2 uM using FRET substrate peptide by FRET assay
[2] = molecular target: Protease (Human immunodeficiency virus 1) (UniProt Q9YQ12); assay: Inhibition of recombinant HIV1 protease at 1 mM using FRET substrate peptide by FRET assay
Protease = Protease (Human immunodeficiency virus 1, UniProt Q9YQ12); assay: Inhibition of recombinant HIV1 protease using FRET substrate peptide by FRET assay
Chain of Protease (Q9YQ12 whole entry): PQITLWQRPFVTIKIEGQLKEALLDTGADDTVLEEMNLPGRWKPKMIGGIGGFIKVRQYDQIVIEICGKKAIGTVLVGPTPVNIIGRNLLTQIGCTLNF

Chain of Protease (Human immunodeficiency virus 1) (Q9YQ12 as listed by the source): as the sequence (Q9YQ12 whole entry) above

Compound | inhibition [1] | inhibition [2] | IC50 (Protease) [µM]
CC(C)CC(=O)N[C@H](C(=O)N[C@H](C(=O)N[C@@H](CC(C)C)[C@@H](O)CC(=O)N[C@@H](C)C(=O)N[C@@H](CC(C)C)[C@@H](O)CC(=O)O)C(C)C)C(C)C | Active | – | –
CC(C)C[C@@H](NC(=O)[C@H](CSCc1ccccc1)NC(=O)OCc1ccccc1)C(=O)OCc1ccccc1 | – | inactive | –
C[C@@H](NC(=O)[C@H](Cc1ccccc1)NC(=O)[C@H](Cc1ccccc1)NC(=O)OC(C)(C)C)C(=O)OCc1ccccc1 | – | inactive | –
CC(C)[C@H](NC(=O)[C@H](Cc1ccccc1)NC(=O)OC(C)(C)C)C(=O)NCC(=O)OCc1ccccc1 (Boc-Phe-Val-Gly-OBn) | – | inactive | –
COC(=O)[C@H](Cc1ccc(O)cc1)NC(=O)[C@H](CC(C)C)NC(=O)[C@H](CO)NC(=O)OCc1ccccc1 (Cbz-Ser-Leu-Tyr-OMe) | – | Active | 162
COC(=O)[C@H](CC(C)C)NC(=O)[C@H](Cc1ccccc1)NC(=O)[C@H](CO)NC(=O)OCc1ccccc1 (Cbz-Ser-Phe-Leu-OMe) | – | Active | 62
O=C(CNC(=O)[C@@H]1CCCN1C(=O)[C@@H]1C[C@@H](O)CN1C(=O)OCc1ccccc1)Oc1ccc([N+](=O)[O-])cc1 (Cbz-[Hyp]-Pro-Gly-ONp) | – | inactive | –
